Experimental data taken from patent US7495015B2, “Indazole derivatives and methods for using the same” (Roche Palo Alto LLC, priority 2004, dated 2009).

Target: T1, p38 MAP kinase (Homo sapiens, UniProt Q16539)
T1 construct: made in house; host or cells: E. coli (co-expressed with SEK-1 and MEKK to obtain the phosphorylated form)
Assay: p38 (MAP) kinase in vitro assay (transfer of γ-phosphate from γ-33P-ATP to Myelin Basic Protein)
Assay type: biochemical
Conditions: phosphorylated recombinant p38 MAP kinase, MBP substrate, 30° C.
Method: This example illustrates a p38 (MAP) kinase in vitro assay useful for evaluating the compounds of the invention.
The p38 MAP kinase inhibitory activity of compounds of this invention in vitro was determined by measuring the transfer of the γ-phosphate from γ-^33P-ATP by p-38 kinase to Myelin Basic Protein (MBP), using a minor modification of the method described in Ahn, et al., J. Biol. Chem. 266:4220-4227 (1991).
The phosphorylated form of the recombinant p38 MAP kinase was co-expressed with SEK-1 and MEKK in E. Coli (see, Khokhlatchev, et al., J Biol. Chem. 272:11057-11062 (1997)) and then purified by affinity chromatography using a Nickel column.
The phosphorylated p38 MAP kinase was diluted in kinase buffer (20 mM 3-(N-morpholino)propanesulfonic acid, pH 7.2, 25 mM β-glycerol phosphate, 5 mM ethylene glycol-bis(beta-aminoethyl ether)-N,N,N′,N′-tetraacetic acid, 1 mM sodium ortho-vanadate, 1 mM dithiothreitol, 40 mM magnesium chloride). Test compound dissolved in DMSO or only DMSO (control) was added and the samples were incubated for 10 min at 30° C. The kinase reaction was initiated by the addition of a substrate cocktail containing MBP and γ-^33P-ATP. […] The phosphorylated MBP was then separated from the residual γ-^33P-ATP using a phosphocellulose membrane (Millipore, Bedfrod, Mass.) and quantitated using a scintillation counter (Packard, Meriden, Conn.).

T1 sequence (Q16539 whole entry): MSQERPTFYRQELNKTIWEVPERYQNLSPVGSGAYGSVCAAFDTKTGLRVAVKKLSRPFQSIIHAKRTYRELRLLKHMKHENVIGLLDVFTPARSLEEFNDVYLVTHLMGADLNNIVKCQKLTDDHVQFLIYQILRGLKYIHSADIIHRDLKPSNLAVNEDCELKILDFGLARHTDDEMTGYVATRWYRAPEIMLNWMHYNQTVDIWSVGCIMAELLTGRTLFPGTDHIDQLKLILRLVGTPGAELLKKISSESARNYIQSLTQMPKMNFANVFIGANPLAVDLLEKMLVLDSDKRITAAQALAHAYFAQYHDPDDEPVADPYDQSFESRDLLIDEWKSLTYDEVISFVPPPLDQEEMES

IC50: 28 nM
Structure (SMILES): Oc1ccc(-c2n[nH]c3cc(Oc4ccccc4F)ccc23)cc1 [Compound 35, 4-[6-(2-Fluoro-phenoxy)-1H-indazol-3-yl]-phenol]
